Data set [1] concerns adjuvant arthritis (hind paw volume) in male Wistar rats. The data set can be described thus: Anti-inflammatory activity (adjuvant arthritis). Format: in vivo, rat. The conditions noted are these: dose 1 mg/kg p.o. once daily for 7 days (days 14-20), measured day 21.
Data set [2] addresses T1, COX-2 (Homo sapiens, UniProt P35354).
T1 construct: incubated in the presence of LPS (10 μg/ml) for 24 h at 37° C. in order to induce The COX-2 expression; endogenous in cells; host or cells: fresh heparinized human whole blood, COX-2 induced with LPS for 24 h
T1 sequence (P35354 18-604): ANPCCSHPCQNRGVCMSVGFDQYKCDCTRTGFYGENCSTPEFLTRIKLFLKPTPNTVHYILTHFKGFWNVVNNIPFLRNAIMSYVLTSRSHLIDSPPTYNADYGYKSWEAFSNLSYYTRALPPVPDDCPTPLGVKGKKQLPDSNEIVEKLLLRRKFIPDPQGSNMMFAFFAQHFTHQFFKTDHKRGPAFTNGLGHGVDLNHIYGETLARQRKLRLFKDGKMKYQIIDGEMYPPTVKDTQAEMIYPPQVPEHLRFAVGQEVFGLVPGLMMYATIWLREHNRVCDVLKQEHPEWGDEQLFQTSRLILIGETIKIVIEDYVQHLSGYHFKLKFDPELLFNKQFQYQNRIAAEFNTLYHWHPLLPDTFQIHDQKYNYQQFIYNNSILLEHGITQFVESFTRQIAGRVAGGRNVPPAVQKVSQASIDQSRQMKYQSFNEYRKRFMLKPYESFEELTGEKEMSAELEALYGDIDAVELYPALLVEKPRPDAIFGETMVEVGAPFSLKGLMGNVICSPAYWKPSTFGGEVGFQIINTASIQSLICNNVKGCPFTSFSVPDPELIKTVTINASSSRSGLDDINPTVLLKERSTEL
The data set can be described thus: COX-2 activity in human whole blood (PGE2, LPS-induced). In kind it is cell-based. The conditions noted are these: for IC50: human whole blood, LPS 10 μg/ml 24 h at 37° C., PGE2 ELISA; for Ratio COX-1/COX-2: ratio of whole blood IC50 values. As to the method: Plasma was separated by centrifugation (10 min at 13000 rpm.) and kept at −30° C. until PGE2 levels were measured using an enzyme immunoassay kit (ELISA). The effects of inhibitors were studied by incubating each compound (5 μl aliquots) at five to six different concentrations with triplicate determinations in the presence of LPS for 24 hours. IC50 values were obtained by non-linear regression using InPlot, GraphPad software on an IBM computer.
Background: ELISA stands for enzyme-linked immunosorbent assay.

The test system of data set [3] is intestinal ulcers and hematocrit in male Wistar rats. The data set can be described thus: Ulcerogenic activity. More on the design: key to Lesion index PU (perforated ulcers) / Lesion index NPU (non-perforated ulcers): 0:no ulcers; 1:<10 ulcers; 2:10-25 ulcers; 3:>25 ulcers. Conditions: dose 100 mg/kg oral once a day for 4 days; for Lesion index NPU (non-perforated ulcers) / Lesion index PU (perforated ulcers): index 0 to 3. Format: in vivo, rat. As to the method:
Animals: Male Wistar rate (Interfauna, U.K., Ltd.) weighing about 150-175 g were used. Animals were maintained on a 12:12 hour light-dark cycle (lights on at 7:00 am) at room temperature (22±1° C.). Food and water were allowed ad libitum.
Procedure: The compounds were administered by the oral route once a day for 4 consecutive days. The body weight of each rat was assessed every day before drug administration. The animals were anesthesized 24 h after the last dosing and 1 ml of blood was extracted by cardiac puncture using heparin (10 U/ml) as anticoagulant. The percentage of hematocrit was measured. The intestines were removed, opened longitudinally and gently washed. The macroscopic severity of the intestinal erosions was assessed using a parametric scale, evaluating the number of the perforated and non-perforated intestinal ulcers by means of a lesion index ranging from 0 to 3 (0:no ulcers, 1:<10 ulcers, 2:10-25 ulcers to 3:>25 ulcers). No gastric ulcers are observed using this protocol.
The treatments were randomized in each experiment. The results were compared with those obtained in the vehicle-treated group using the ANOVA test.

In data set [4] the target is T2, COX-1 (Homo sapiens, UniProt P23219).
T2 construct: Fresh blood from healthy volunteers; endogenous in cells; host or cells: fresh heparinized human whole blood stimulated with calcium ionophore A23187
T2 sequence (P23219 24-599): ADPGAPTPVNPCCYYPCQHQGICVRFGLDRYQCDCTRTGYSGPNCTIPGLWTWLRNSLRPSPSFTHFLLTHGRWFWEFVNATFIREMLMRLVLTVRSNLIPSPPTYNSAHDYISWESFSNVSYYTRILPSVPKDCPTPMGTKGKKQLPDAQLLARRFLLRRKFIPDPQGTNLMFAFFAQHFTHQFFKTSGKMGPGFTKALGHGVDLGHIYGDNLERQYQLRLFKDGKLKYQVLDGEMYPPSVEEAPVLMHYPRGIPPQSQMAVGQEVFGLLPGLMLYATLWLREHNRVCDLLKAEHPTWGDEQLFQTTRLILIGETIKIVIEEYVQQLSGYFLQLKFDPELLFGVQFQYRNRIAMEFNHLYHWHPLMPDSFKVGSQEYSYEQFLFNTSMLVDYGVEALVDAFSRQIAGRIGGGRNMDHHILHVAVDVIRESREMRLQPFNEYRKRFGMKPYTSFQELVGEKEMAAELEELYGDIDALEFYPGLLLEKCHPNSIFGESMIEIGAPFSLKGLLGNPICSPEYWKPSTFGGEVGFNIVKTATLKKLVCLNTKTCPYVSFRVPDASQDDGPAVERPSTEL
The data set can be described thus: COX-1 activity in human whole blood (TXB2, calcium ionophore A23187). In kind it is cell-based. The conditions noted are these: 1 h at 37° C., TXB2 ELISA. As to the method: For the COX-1 activity determination, 500 μl aliquots of blood were incubated with either 5 μl vehicle (dimethylsulphoxide) or 5 μl of a test compound for 1 h at 37° C. […] Plasma was separated by centrifugation (10 min at 13000 rpm) and kept at −30° C. until TXB2 levels were measured using an enzyme immunoassay kit (ELISA). The effect of the compounds were evaluated by incubating each compound at five to six different concentrations with triplicate determinations. IC50 values were obtained by non-linear regression using InPlot, GraphPad software on an IBM computer.

We go through five molecules from patent US6518303B2, “2-phenylpyran-4-one derivatives” (Almirall Prodesfarma S.A., priority 1999, dated 2003).

For the molecule `Cc1cc(=O)c(-c2ccc(Cl)cc2)c(-c2ccc(S(C)(=O)=O)cc2)o1` [Compound 5, 3-(4-chlorophenyl)-2-(4-methanesulfonylphenyl)-6-methylpyran-4-one], the melting point came out at 182 °C. In addition, the “% Inhibition of inflammation (paw volume)” value (“% Inhibition of inflammation” below) in data set [1] was 50 (1) %. Also, in data set [2], half-maximal inhibition (IC50) required 2100 nM and the “Ratio COX-1/COX-2” value was more than 47. Also, in data set [3], the Hematocrit was 44.1 ± 0.7%, the “Lesion index NPU (non-perforated ulcers)” value was 0 and the “Lesion index PU (perforated ulcers)” value is on record as 0. For the same molecule, the IC50 in data set [4] was more than 100 µM.
On to `Cc1cc(=O)c(-c2ccc(Cl)c(Cl)c2)c(-c2ccc(S(C)(=O)=O)cc2)o1` [Compound 22, 3-(3,4-dichlorophenyl)-2-(4-methanesulfonylphenyl)-6-methylpyran-4-one], for which the melting point was 156 °C. Besides, in data set [1], the “% Inhibition of inflammation” value is given as 69 (1) %. This molecule registered a Hematocrit in data set [3] of 44.4 ± 0.3%. For the same molecule, the IC50 in data set [4] is 37.1 µM.
Consider `Cc1cc(=O)c(Oc2ccc(F)cc2)c(-c2ccc(S(C)(=O)=O)cc2)o1` [Compound 39, 3-(4-fluorophenoxy)-2-(4-methanesulfonylphenyl)-6-methylpyran-4-one], for which the melting point is 189 °C. Moreover, the “% Inhibition of inflammation” value in data set [1] is on record as 75 (1) %. Also, in data set [2], the IC50 stood at 960 nM and the “Ratio COX-1/COX-2” value was more than 104. In data set [3], the Hematocrit is on record as 43.7 ± 0.4%, the “Lesion index NPU (non-perforated ulcers)” value amounted to 0 and the “Lesion index PU (perforated ulcers)” value was found to be 0. For the same molecule, the IC50 in data set [4] is more than 100 µM.
As for `Cc1cc(=O)c(Oc2ccc(Cl)cc2)c(-c2ccc(S(C)(=O)=O)cc2)o1` [Compound 41], the “% Inhibition of inflammation” value in data set [1] is listed as 71 (1) %. For the same molecule, in data set [2], the IC50 is 350 nM and the “Ratio COX-1/COX-2” value is on record as more than 285. Further, in data set [3], the Hematocrit is on record as 43.4 ± 1.9%, the “Lesion index NPU (non-perforated ulcers)” value worked out at 0 and the “Lesion index PU (perforated ulcers)” value was 0. In addition, the half-maximal inhibitory concentration (IC50) in data set [4] was more than 100 µM.
`Cc1cc(=O)c(Oc2ccc(F)cc2F)c(-c2ccc(S(C)(=O)=O)cc2)o1` [Compound 45, 3-(2,4-difluorophenoxy)-2-(4-methanesulfonylphenyl)-6-methylpyran-4-one] gave a melting point of 191 °C. Moreover, in data set [1], the “% Inhibition of inflammation” value is reported as 74 (1) %. In addition, in data set [2], the half-maximal inhibitory concentration (IC50) came out at 150 nM and the “Ratio COX-1/COX-2” value was 147. Moreover, in data set [3], the Hematocrit was 44.4 ± 0.9%, the “Lesion index NPU (non-perforated ulcers)” value is 0 and the “Lesion index PU (perforated ulcers)” value is on record as 0. In addition, the IC50 in data set [4] was determined as 22 µM.

As a reminder, the IC50 is the midpoint of a concentration-inhibition curve. As usually defined, the melting point is the temperature of the solid-liquid transition.
